In BindingDB's records for doi:10.1021/jm970373j (Parke-Davis Pharmaceutical Research, 1998) one finds IC50 data, which are given here for three molecules.

The target of the test is Gastrin/cholecystokinin type B receptor (Cavia porcellus). In words: Compound was evaluated for functional activity on Cholecystokinin type B receptor (CCK-B) receptor carried out on guinea pig stomach cells.
With `CCOC(=O)c1cccc(NC(=O)NNc2nc3ccccc3c(=O)n2-c2cccc(OC(C)C)c2)c1` [N-(3-ethylesterbenzoicacid)-2-[3,4-dihydro-3-[(3-Isopropoxy)phenyl]-4-oxo-2-quinazolinyl]hydrazinecarboxamide], the midpoint of inhibition, the IC50, lay at 22 nM.

As for `CCOC(=O)c1cccc(NC(=O)NNc2nc3ccccc3c(=O)n2-c2ccc(Cl)cc2)c1` [N-(3-ethylesterbenzoicacid)-2-[3,4-dihydro-3-[(4-chloro)-phenyl]-4-oxo-2-quinazolinyl]hydrazinecarboxamide], the IC50 – broadly, the concentration at which inhibition is half-maximal – amounted to 33 nM.

`CC(C)Oc1cccc(-n2c(NNC(=O)Nc3ccc(Br)cc3)nc3ccccc3c2=O)c1` [N-(4-Bromophenyl)-2-[3,4-dihydro-3-[3-(1-methylethoxy)phenyl]-4-oxo-2-quinazolinyl]hydrazinecarboxamide]: half-maximal inhibition (IC50) required 54 nM.
